# Reference: article PMC10613275 (Scientific Reports, 2023)
# Like-named read-outs stand apart in the source and are kept apart here. Marks after values point to notes of the source that are not given here.
# Key:
# androgen receptor = test: Androgenic activity, transactivation luciferase assay in MDA-kb2; conditions: MDA-kb2, positive control
# Excerpt: Results were expressed as fold induction (FI), i.e. fold increase compared to vehicle control. According to EPA[28], FI of positive control should be above 4 to meet the performance standard.
# CHO-K1 cells (hprt gene) [1] = test: CHO/HPRT mutation assay; assay type: cell-based, Chinese hamster; conditions: 3MC 2 µg/ml
# CHO-K1 cells (hprt gene) [2] = test: CHO/HPRT mutation assay; assay type: cell-based, Chinese hamster; conditions: Table 4, With S9; lilial 500 µM, 3MC 2 µg/ml
# Description: The test with metabolic activation was performed as described in the OECD protocol, the ASTM standard[23] and other protocols[30],[31] and publications. For the test, cryopreserved CHO-K1 cells after the mutant cleansing were used. Mutant cleansing was performed according to[30], i.e. cells were cultivated three days in HAT medium, one day in HT medium and then frozen.
# One passage after the thawing, 1 × 10^6 cells were seeded in 60 mm cultivation plates as described in[32]. […] The final concentration of the solvent, DMSO, was 1%. […] EMS at final concentration 2 mM as recommended in[31] served as a positive control. 3-MC at final concentration […][22] served as a positive control for metabolic activation. 1% DMSO was used as a VC. Sole cultivation medium served as a negative control (NC). After 4 h, the medium with tested substances was removed, plates were washed with PBS and fresh medium with 10% FBS was added.
# During the expression period (1 week), the cells on all 60 mm plates were passaged once. On day 8, cells were trypsinized, resuspended, counted and 2 × 10^5 cells of each plate were seeded on 60 mm plates in triplicates in the presence of a selective agents, 6-TG (30 µM) as described in[32]. […] 300 cells without the selective agent were seeded in a parallel to evaluate plating efficiency (PE). On day 15, the plates were washed with PBS, cells were fixed with ice cold methanol for 10 min and stained with 0.05% crystal violet in water for 30 min[33]. After washing with water, formed colonies were counted using Schuett Count (Schuett-biotec, Göttingen, Germany). Calculations were done as described in[29]. PE was calculated according to a general Eq. 1. Particular PE at selective conditions was calculated according to Eq. 2. Particular PE at non-selective conditions was calculated according to Eq. 3. Mutation frequency (MF) was calculated according to Eq. 4.1 PE=numberofcoloniesformed/numberofcellsplated 2 PEselective=numberofmutantcoloniesNMC/200,000 3 PEnon-selective=numberofcoloniesformed/300 4 MF=PEselectiveconditions/PEnon-selectiveconditions
# RPTEC/TERT1 cells = test: Nephrotoxicity, RT-qPCR of kidney damage biomarkers; assay type: cell-based, human; conditions: 100 µM, 48 h, normalized to GAPDH and ACTB
# Description: RPTEC/TERT1 cells were seeded at a concentration of 2 × 10^5 cells/ml in ProxUp2 medium into 60 mm Petri dishes. After 24 h, the cells were washed with PBS and […] metabolites (100 μM) were applied in fresh ProxUp2 medium. The cells were incubated with samples for 48 h, after which the cells were washed with PBS and dishes were frozen in - 160 °C. The RNA was isolated using RNeasy Plus Mini Kit (Qiagen, Hilden, Germany). The RNA concentration and purity was determined with NanoDrop One (ThermoFisher Scientific) spectrophotometr. The cDNA synthesis was performed from 0.1 μg of total RNA with an iScript Reverse Transcription Supermix (Bio-Rad, Hercules, California, USA). Quantitative real-time PCR (qPCR) was performed using the qPCR Bio-Rad C100 Touch System (Bio-Rad) with a 96-well block. The reaction mixture consisted of 1 μl of specific 20 × PrimePCR Assay (Bio-Rad), 10 μl of 2 × SsoAdvance Universal Supermix (Bio-Rad), 2 μl of cDNA sample, 7 μl of nuclease-free water. The final reaction volume was 20 μl. […] Cycling parameters were: initial denaturation at 95 °C for 2 min, followed by 40 cycles of 95 °C for 5 s and 60 °C for 30 s. Fluorescence values were acquired after each extension phase. Samples were analyzed in triplicate, and samples with a standard deviation of duplicates > 0.2 Ct were re-analyzed. A non-template control containing nuclease-free water instead of cDNA as well as non-RT control containing purified RNA without reverse transcription was used. The real-time PCR study followed the MIQE guidelines. Relative transcript levels of the estimated genes in the cell lines were compared using the software CFX Maestro Software 2.3 (Bio-Rad).
# HeLa cells = test: γH2AX biomarker-based genotoxicity assay, HeLa; assay type: cell-based, human; conditions: PC 30 μM; for Fold, mean (γH2AX over negative control): above 1.5 indicates genotoxicity
# Description: (§1) Briefly, HeLa and CHO-K1 cells were seeded at a concentration of 1 × 10^5 cells/ml into the 96-well plates. CHO-K1 cells were used for comparison with HPRT test. HeLa cells were recommended by the manufacturer of the kit. After 24 h, cells were rinsed with PBS and cultivation medium (“Cell lines” Section) without ATB, with a reduced content of FBS (5%) was added. 30 µM valinomycin (in DMSO) was used as a positive control Samples were applied in the presence of non-toxic sample concentrations, i.e. 100 µM either with or without S9 mix. […] Cells were photographed using a fluorescence microscope (Olympus IX83); filters: DAPI (500 ms) and Cy3 (500 ms). Bioimage analysis in ImageJ software was performed as described previously.
# CHO-K1 cells = assay type: cell-based, Chinese hamster; conditions: lilial 100 µM, PC 30 μM; for Fold, mean (γH2AX over negative control): above 1.5 indicates genotoxicity
# Description: as §1
# rats = rats ref 41; cited from earlier work
# [3] = set-up: method as in PMID 32763837; conditions: children and adolescents in Germany ref 40; cited from earlier work
# [4] = test system: MCF-7 human breast cancer cells; conditions: lilial 100 µM, estrogen 10 nM; unaffected control 1.8 doublings ref 8; cited from earlier work
# [5] = Table 4, Without S9, lilial 500 µM
molecule,measurement,setting,value
"C[C@]12CCC(=O)C[C@@H]1CC[C@@H]1[C@@H]2CC[C@]2(C)[C@@H](O)CC[C@@H]12 [DHT, dihydrotestosterone, reference compound]",Concentration from which fold induction (FI) significantly increased,androgen receptor,≥ 0.5 nM
"Cc1ccc2cc3c(ccc4ccccc43)c3c2c1CC3 [3MC, 3-methylcholanthren]",MF (/106) mutation frequency,"CHO-K1 cells (hprt gene) [1]; Table 4, With S9, lilial 500 µM",152 ± 14 /106
same,MF (/10^6) mutation frequency,"CHO-K1 cells (hprt gene) [1]; Table 4, Without S9",25 ± 31 /10^6
same,NMC (number of mutant colonies),CHO-K1 cells (hprt gene) [1]; [5],3 ± 4
same,PE (%) plating efficiency,CHO-K1 cells (hprt gene) [1]; [5],66 ± 3%
same,NMC (number of mutant colonies),CHO-K1 cells (hprt gene) [2],17 ± 2
same,PE (%) plating efficiency,CHO-K1 cells (hprt gene) [2],55 ± 4%
CN(C)[C@@H]1C(O)=C(C(N)=O)C(=O)[C@@]2(O)C(O)=C3C(=O)c4c(O)cccc4[C@@](C)(O)[C@H]3C[C@@H]12 [Tetracycline],"Relative fold gene expression, CLU",RPTEC/TERT1 cells,4.09*
same,"Relative fold gene expression, CST3",RPTEC/TERT1 cells,1.64*
same,"Relative fold gene expression, HMOX",RPTEC/TERT1 cells,4.93**
same,"Relative fold gene expression, IL6",RPTEC/TERT1 cells,1.70
same,"Relative fold gene expression, IL8",RPTEC/TERT1 cells,1.19
same,"Relative fold gene expression, IPO8",RPTEC/TERT1 cells,1.41**
same,"Relative fold gene expression, TIMP1",RPTEC/TERT1 cells,1.31
"CC(C)[C@@H]1NC(=O)[C@H](C)OC(=O)[C@@H](C(C)C)NC(=O)[C@@H](C(C)C)OC(=O)[C@H](C(C)C)NC(=O)[C@H](C)OC(=O)[C@@H](C(C)C)NC(=O)[C@@H](C(C)C)OC(=O)[C@H](C(C)C)NC(=O)[C@H](C)OC(=O)[C@@H](C(C)C)NC(=O)[C@@H](C(C)C)OC1=O [PC, valinomycin]",MoA (mean fluorescence values over area of the nuclei),"HeLa cells; 4h_S9, lilial 100 µM",0.29**
same,"RA (%), mean (relative area of nuclei)","HeLa cells; 4h_S9, lilial 100 µM",97.8%
same,"Fold, mean (γH2AX over negative control)","HeLa cells; 4h_S9, lilial 100 µM",2.94
same,MoA (mean fluorescence values over area of the nuclei),"HeLa cells; 4 h, without S9, lilial 100 µM",0.13*
same,"RA (%), mean (relative area of nuclei)","HeLa cells; 4 h, without S9, lilial 100 µM",95.8%
same,"Fold, mean (γH2AX over negative control)","HeLa cells; 4 h, without S9, lilial 100 µM",2.63
same,MoA (mean fluorescence values over area of the nuclei),"HeLa cells; 24 h, lilial 100 µM",0.55*
same,"RA (%), mean (relative area of nuclei)","HeLa cells; 24 h, lilial 100 µM",101.5%
same,"Fold, mean (γH2AX over negative control)","HeLa cells; 24 h, lilial 100 µM",24.03
same,MoA (mean fluorescence values over area of the nuclei),"CHO-K1 cells; CHO-K1, 4h_S9",0.99
same,"RA (%), mean (relative area of nuclei)","CHO-K1 cells; CHO-K1, 4h_S9",90.8%
same,"Fold, mean (γH2AX over negative control)","CHO-K1 cells; CHO-K1, 4h_S9",1.35
same,MoA (mean fluorescence values over area of the nuclei),"CHO-K1 cells; CHO-K1, 4 h, without S9",1.14
same,"RA (%), mean (relative area of nuclei)","CHO-K1 cells; CHO-K1, 4 h, without S9",75.3%
same,"Fold, mean (γH2AX over negative control)","CHO-K1 cells; CHO-K1, 4 h, without S9",1.45
same,MoA (mean fluorescence values over area of the nuclei),"CHO-K1 cells; CHO-K1, 24 h",5.26
same,"RA (%), mean (relative area of nuclei)","CHO-K1 cells; CHO-K1, 24 h",48.5%
same,"Fold, mean (γH2AX over negative control)","CHO-K1 cells; CHO-K1, 24 h",4.43
CC(C)(C)c1ccc(C(=O)O)cc1 [p-tert-butylbenzoic acid],Effects on male reproduction,rats,adverse effects on male reproduction
same,Geometric mean concentration in urine,[3],10.21 µg/L
estrogen [reference compound],Cell doublings,[4],5.2 doublings
CC(Cc1ccc(C(C)(C)CO)cc1)C(=O)O (stereo not shown) [hydroxy-lysmerylic acid],Geometric mean concentration in urine,[3],< 0.4 µg/L
CC(Cc1ccc(C(C)(C)C)cc1)C(=O)O (stereo not shown) [lysmerylic acid],Geometric mean concentration in urine,[3],< 0.2 µg/L
